# Measurements reported in paper PMC7901646, “Pyrrolo[2′,3′:3,4]cyclohepta[1,2-d][1,2]oxazoles, a New Class of Antimitotic Agents Active against Multiple Malignant Cell Types” (Journal of Medicinal Chemistry, 2020).
# Like-named read-outs stand apart in the source and are kept apart here.
# Key:
# Type in all cases: cell-based
# SF-295 = assay: NCI-60 screen; details: Homo sapiens, CNS Cancer
# Experimental: (§1) All the synthesized compounds 51–76 were tested at a 10^–5 M concentration for their antitumor activity on the full NCI-60 panel comprising cancer cell lines derived from nine human cancer cell types (leukemia, non-small-cell lung, colon, central nervous system, melanoma, ovarian, renal, prostate, and breast).[50]
# SK-MEL-5 = assay: NCI-60 screen; details: Homo sapiens, Melanoma
# Experimental: as §1
# IGROV1 = assay: NCI-60 screen; details: Homo sapiens, IGROV-1; Ovarian Cancer
# Experimental: as §1
# A498 = assay: NCI-60 screen; details: Homo sapiens, Renal Cancer
# Experimental: as §1
# CAKI-1 = assay: NCI-60 screen; details: Homo sapiens, Renal Cancer
# Experimental: as §1
# MCF7 = assay: NCI-60 screen; details: Homo sapiens, Breast Cancer
# Experimental: as §1
# SF-268 = assay: NCI-60 screen; details: Homo sapiens, CNS Cancer
# Experimental: as §1
# NCI/ADR-RES = assay: NCI-60 screen; details: Homo sapiens, Ovarian Cancer
# Experimental: as §1
# NCI-H226 = assay: NCI-60 screen; details: Homo sapiens, Non-Small-Cell Lung Cancer
# Experimental: as §1
# SK-OV-3 = assay: NCI-60 screen; details: Homo sapiens, Ovarian Cancer
# Experimental: as §1
# TK-10 = assay: NCI-60 screen; details: Homo sapiens, Renal Cancer
# Experimental: as §1
# ACHN = assay: NCI-60 screen; details: Homo sapiens, Renal Cancer
# Experimental: as §1
# NCI-H460 = assay: NCI-60 screen; details: Homo sapiens, Non-Small-Cell Lung Cancer
# Experimental: as §1
# PC-3 = assay: NCI-60 screen; details: Homo sapiens, Prostate Cancer
# Experimental: as §1
# SW-620 = assay: NCI-60 screen; details: Homo sapiens, Colon Cancer
# Experimental: as §1
# K-562 = assay: NCI-60 screen; details: Homo sapiens, K562; Leukemia
# Experimental: as §1
# CCRF-CEM = assay: NCI-60 screen; details: Homo sapiens, Leukemia
# Experimental: as §1
# DU-145 = assay: NCI-60 screen; details: Homo sapiens, Prostate Cancer
# Experimental: as §1
# HCT-116 = assay: NCI-60 screen; details: Homo sapiens, Colon Cancer
# Experimental: as §1
# MDA-MB-231/ATCC = assay: NCI-60 screen; details: Homo sapiens, Breast Cancer
# Experimental: as §1
# MDA-MB-435 = assay: NCI-60 screen; details: Homo sapiens, Melanoma
# Experimental: as §1
# SR = assay: NCI-60 screen; details: Homo sapiens, Leukemia
# Experimental: as §1
# HL-60(TB) = assay: NCI-60 screen; details: Homo sapiens, Leukemia
# Experimental: as §1
# SNB-19 = assay: NCI-60 screen; details: Homo sapiens, CNS Cancer
# Experimental: as §1
# HT29 = assay: NCI-60 screen; details: Homo sapiens, HT-29; Colon Cancer
# Experimental: as §1
# RPMI-8226 = assay: NCI-60 screen; details: Homo sapiens, Leukemia
# Experimental: as §1
# M14 = assay: NCI-60 screen; details: Homo sapiens, Melanoma
# Experimental: as §1
# HCT-15 = assay: NCI-60 screen; details: Homo sapiens, Colon Cancer
# Experimental: as §1
# MOLT-4 = assay: NCI-60 screen; details: Homo sapiens, Leukemia
# Experimental: as §1
# COLO 205 = assay: NCI-60 screen; details: Homo sapiens, Colon Cancer
# Experimental: as §1
# UACC-62 = assay: NCI-60 screen; details: Homo sapiens, Melanoma
# Experimental: as §1
# LOX IMVI = assay: NCI-60 screen; details: Homo sapiens, Melanoma
# Source text: (§2) on the full NCI-60 panel comprising cancer cell lines derived from nine human cancer cell types (leukemia, non-small-cell lung, colon, central nervous system, melanoma, ovarian, renal, prostate, and breast).[50]
# OVCAR-3 = assay: NCI-60 screen; details: Homo sapiens, Ovarian Cancer
# Source text: as §2
# NCI-H522 = assay: NCI-60 screen; details: Homo sapiens, Non-Small-Cell Lung Cancer
# Source text: as §2
# KM12 = assay: NCI-60 screen; details: Homo sapiens, Colon Cancer
# Source text: as §2
# [1] = system: NCI-60 panel of human cancer cell lines; assay: NCI in vitro human tumor cell line screening, full panel; details: for MG_MID (mean graph midpoint): arithmetic mean for all tested cancer cell lines
# Source text: as §2
# [2] = Homo sapiens, full NCI panel, five concentrations 10^–4–10^–8 M, read-out: GI50 (concentration that inhibits 50% net cell growth), range over panel
Compound,GI50 (SF-295) [nM],GI50 (SK-MEL-5) [nM],GI50 (IGROV1) [nM],GI50 (A498) [nM],GI50 (CAKI-1) [nM],GI50 (MCF7) [nM],GI50 (SF-268) [nM],GI50 (NCI/ADR-RES) [nM],GI50 (NCI-H226) [nM],GI50 (SK-OV-3) [nM],GI50 (TK-10) [nM],GI50 (ACHN) [nM],GI50 (NCI-H460) [nM],GI50 (PC-3) [nM],GI50 (SW-620) [nM],GI50 (K-562) [nM],GI50 (CCRF-CEM) [nM],GI50 (DU-145) [nM],GI50 (HCT-116) [nM],GI50 (MDA-MB-231/ATCC) [nM],further results
"CCOC(=O)c1cc2c(n1Cc1cccc(OC)c1)-c1oncc1CCC2 [Compound 63, Ethyl 9-(3-Methoxybenzyl)-4,5,6,9-tetrahydropyrrolo[2′,3′:3,4]cyclohepta[1,2-d][1,2]oxazole-8-carboxylate]",620,750,1160,440,2310,370,6710,430,21000,2830,11200,3400,3530,2350,480,390,2170,2180,470,1840,"GI50 (MDA-MB-435): 150 nM; GI50 (SR): 280 nM; GI50 (HL-60(TB)): 530 nM; GI50 (SNB-19): 8230 nM; GI50 (HT29): 360 nM; GI50 (RPMI-8226): 1890 nM; GI50 (M14): 540 nM; GI50 (HCT-15): 450 nM; GI50 (MOLT-4): 2300 nM; GI50 (COLO 205): 580 nM; GI50 (UACC-62): 510 nM; GI50 (LOX IMVI): 1750 nM; GI50 (OVCAR-3): 300 nM; GI50 (NCI-H522): 230 nM; GI50 (KM12): 460 nM; GI50 [1, 2]: 150 to 18700 nM; MG_MID (mean graph midpoint) ([1]; full NCI panel): 1.45 µM"
"CCOC(=O)c1c(Cl)c2c(n1Cc1cc(OC)cc(OC)c1)-c1oncc1CCC2 [Compound 75, Ethyl 7-Chloro-9-(3,5-dimethoxybenzyl)-4,5,6,9-tetrahydropyrrolo[2′,3′:3,4]cyclohepta[1,2-d][1,2]oxazole-8-carboxylate]",60,490,340,170,280,100,1910,200,9710,240,10300,940,350,290,320,290,250,350,430,840,"GI50 (MDA-MB-435): 30 nM; GI50 (SR): 70 nM; GI50 (HL-60(TB)): 310 nM; GI50 (SNB-19): 520 nM; GI50 (HT29): 270 nM; GI50 (RPMI-8226): 390 nM; GI50 (M14): 260 nM; GI50 (HCT-15): 370 nM; GI50 (MOLT-4): 580 nM; GI50 (COLO 205): 170 nM; GI50 (UACC-62): 110 nM; GI50 (LOX IMVI): 880 nM; GI50 (OVCAR-3): 190 nM; GI50 (NCI-H522): 30 nM; GI50 (KM12): 320 nM; GI50 [1, 2]: 30 to 27000 nM; MG_MID (mean graph midpoint) ([1]; full NCI panel): 0.41 µM"
"CCOC(=O)c1cc2c(n1Cc1cc(OC)cc(OC)c1)-c1oncc1CCC2 [Compound 66, Ethyl 9-(3,5-Dimethoxybenzyl)-4,5,6,9-tetrahydropyrrolo[2′,3′:3,4]cyclohepta[1,2-d][1,2]oxazole-8-carboxylate]",30,40,60,20,50,30,50,30,7980,50,> 100000,60,40,40,40,40,50,40,40,240,"GI50 (MDA-MB-435): 10 nM; GI50 (SR): 30 nM; GI50 (HL-60(TB)): 30 nM; GI50 (SNB-19): 150 nM; GI50 (HT29): 30 nM; GI50 (RPMI-8226): 50 nM; GI50 (M14): 50 nM; GI50 (HCT-15): 40 nM; GI50 (MOLT-4): 260 nM; GI50 (COLO 205): 30 nM; GI50 (UACC-62): 70 nM; GI50 (LOX IMVI): 50 nM; GI50 (OVCAR-3): 20 nM; GI50 (NCI-H522): 20 nM; GI50 (KM12): 30 nM; GI50 ([1]; Homo sapiens, prostate subpanel, read-out: GI50): 40 nM; MG_MID (mean graph midpoint) ([1]; full NCI panel): 0.08 µM; mean values of subpanel ([1]; colon and CNS cancers): 0.06 µM; GI50 ([1]; full NCI panel, five concentrations 10^–4–10^–8 M, read-out: GI50 (concentration that inhibits 50% net cell growth), range over panel): 10 to 13400 nM; calculated MG_MID value for each subpanel ([1]; melanoma, prostate and renal subpanels): 0.04 µM"
"CCOC(=O)c1cc2c(n1Cc1ccccc1OC)-c1oncc1CCC2 [Compound 62, Ethyl 9-(2-Methoxybenzyl)-4,5,6,9-tetrahydropyrrolo[2′,3′:3,4]cyclohepta[1,2-d][1,2]oxazole-8-carboxylate]",1380,2610,1990,3460,3510,710,46200,1360,> 100000,2700,67800,16600,3880,2480,2020,1590,2870,5270,3790,9120,"GI50 (MDA-MB-435): 350 nM; GI50 (SR): 430 nM; GI50 (HL-60(TB)): 3040 nM; GI50 (SNB-19): 64700 nM; GI50 (HT29): 910 nM; GI50 (RPMI-8226): 4110 nM; GI50 (M14): 3670 nM; GI50 (HCT-15): 2240 nM; GI50 (MOLT-4): 5680 nM; GI50 (COLO 205): 870 nM; GI50 (UACC-62): 3370 nM; GI50 (LOX IMVI): 7640 nM; GI50 (OVCAR-3): 870 nM; GI50 (NCI-H522): 350 nM; GI50 (KM12): 2100 nM; GI50 [1, 2]: 300 to 46200 nM; MG_MID (mean graph midpoint) ([1]; full NCI panel): 4.47 µM"
